# Measurements published in article PMC12066977, “Alkyl Tail Variation on Chalcone‐Based Quaternary Pyridinium Salts as Rule‐of‐Thumb for Antimicrobial Activity” (Archiv Der Pharmazie, 2025).
# Assays:
# [1] = Cell viability and proliferation assay (WST8/CCK-8); type: cell-based; details: African green monkey, Vero cells (ATCC CCL-81), 48 h treatment, CCK-8; read-out: CC50 [95% CI] Vero cells
# Experimental: Vero cell line (ATCC CCL‐81) was selected as a model system to investigate the overall effect of chalcones on non‐malignant mammalian cells. […] For experiments, cells were seeded into 96‐well plates at 10^4 cells/well and incubated at 37°C for 24 h. Following washes with PBS, the cell monolayer was incubated with 100 µL of medium containing the twofold serial dilutions of the compounds. Both untreated cells and cells incubated with medium containing solvent dilutions were included in each experiment as controls. The cell viability was assessed by a WST8‐based assay according to the manufacturer's instructions (CCK‐8, Cell Counting Kit‐8, Dojindo Molecular Technologies, Rockville, MD, USA). After 48 h of incubation, culture medium was removed from each well, the monolayer was washed with PBS, and 100 µL of fresh medium containing 10 µL of CCK‐8 solution was added. Following a 2 h incubation at 37°C, the OD450nm was read, and data were expressed as the percentage of cell viability relative to the untreated controls. The CC50 was obtained on the corresponding dose–response curves generated as previously reported for IC50 values. Experiments were carried out in triplicate in three biological replicates.
# S. aureus ATCC 25923 = assay: Broth microdilution antimicrobial assay (MIC, IC50); type: cell-based; details: Staphylococcus aureus; for IC50: ATCC25923, 50% growth inhibition, 24 h, read-out: IC50 [95% confidence interval] Staphylococcus aureus; for MIC: ATCC25923, 24 h, broth microdilution, 37°C
# Experimental: (§1) Reference strains of Staphylococcus aureus (ATCC 25923), Escherichia coli (ATCC 25922), and Candida albicans (ATCC 10231) were used in this study as microbial models. These strains were purchased from the American Type Culture Collection (ATCC); bacterial cultures were routinely grown on 5% blood agar plate, while fungal cultures on Sabouraud Dextrose Agar (Biolife […]., Milan, Italy). […] In short, microbial inocula were prepared at 0.5 McFarland in PBS and, subsequently, bacterial suspensions were diluted 1:200 in Mueller-Hinton broth (Sigma-Aldrich, St. Louis, MO, USA), while fungal inoculum was diluted 1:20 in RPMI-1640 medium (Gibco®, ThermoFisher Scientific Inc., Waltham, MA, USA), containing glucose 2%, 0.3% levo-glutamine buffered to pH 7.0 with 0.165 M 3-(N-morpholino) propanesulfonic acid (MOPS). A total of 100 μL of these microbial suspensions was introduced into a 96-well microplate and incubated with 100 μL of the compounds, two-fold serially diluted in the range of 100-0.19 μM. Positive controls (microbial suspensions in regular media), negative controls (only compounds), and solvent controls (microbial suspensions incubated with DMSO dilutions) were included in the tests. The plate was incubated at 37°C for 24 h, and subsequently the optical density at 630 nm (OD630nm) was spectrophotometrically measured. Experiments were carried out in triplicate in three biological replicates. […] Statistical analysis was carried out by using GraphPad Prism version 9.4.1 for Windows (GraphPad Software, San Diego, California USA, www.graphpad.com). ^a MIC (Minimum Inhibitory Concentration) were determined in vitro by means of a standardized microdilution assay, in compliance with the Clinical and laboratory Standard Institute (CLSI) guidelines (30). Microbial suspensions were prepared at 0.5 McFarland in PBS, then diluted in the media and transferred in a 96 micro-well plate together with the serially 2-fold dilutions of the compounds. After 24h of incubation at 37°C, microbial growths were evaluated by measuring the Optical Density at 600 nm, then percentage values were obtained as relative to the positive controls (microbial suspensions in regular media).
# E. coli ATCC 25922 = assay: as above; type: cell-based; details: Escherichia coli, 24 h; for IC50: ATCC25922, 50% growth inhibition, read-out: IC50 [95% confidence interval] Escherichia coli; for MIC: ATCC25922, broth microdilution, 37°C
# Experimental: as §1
# C. albicans ATCC 10231 = assay: as above; type: cell-based; details: Candida albicans, 24 h; for IC50: ATCC10231, 50% growth inhibition, read-out: IC50 [95% confidence interval] Candida albicans; for MIC: ATCC10231, broth microdilution, 37°C
# Experimental: as §1
# [2] = test system: human red blood cells (hRBCs); assay: Hemolytic activity assay; type: cell-based; details: 25 µM, 90 min, 37°C
# Experimental: The hemolytic activity of some selected compounds was evaluated as the amount of hemoglobin released by the disruption of human red blood cells (hRBCs). For the experiments, fresh hRBCs were collected by centrifugation at 1500g for 10 min, washed three times with PBS, and resuspended to a final concentration of 4% w/v hRBCs in PBS. Then, 100 µL of hRBCs suspension and an equal volume of the twofold dilutions of the antimicrobial peptides were mixed in a 96‐well plate and incubated for 90 min at 37°C. After centrifugation at 1000g for 5 min, the supernatants were transferred into a clear 96‐well plate, and OD405nm was read. Untreated hRBCs (incubated with PBS) and hRBCs incubated with 1% Triton X‐100 were employed as negative and positive controls, respectively. The hemolysis percentage was calculated as [OD405nm (sample) − OD4_05nm (negative control)]/[OD405nm (positive control) − OD405nm (negative control)] × 100. Minimal hemolytic concentrations (MHCs) were defined as the compound concentration causing 10% hemolysis. Three independent experiments were performed in triplicate.
# [3] = test system: S. aureus ATCC 25923, E. coli ATCC 25922, C. albicans ATCC 10231; assay: Broth microdilution antimicrobial assay, statements pooled over the three strains; type: cell-based; details: stated for S. aureus, E. coli and C. albicans together; read-out: MIC toward the three selected strains
# Experimental: The antimicrobial activity of the compounds was assessed by determining the Minimum Inhibitory Concentration (MIC) by a well‐established broth microdilution procedure in microtiter plates and in compliance with the Clinical and Laboratory Standards Institute (CLSI) guidelines.
# In short, microbial inocula were prepared at 0.5 McFarland in PBS and, subsequently, bacterial suspensions were diluted 1:200 in Mueller–Hinton broth (Sigma‐Aldrich, St. Louis, MO, USA), while fungal inoculum was diluted 1:20 in RPMI‐1640 medium (Gibco®, ThermoFisher Scientific Inc., Waltham, MA, USA), containing glucose 2%, 0.3% levo‐glutamine buffered to pH 7.0 with 0.165 M 3‐(N‐morpholino) propanesulfonic acid (MOPS). A total of 100 µL of these microbial suspensions was introduced into a 96‐well microplate and incubated with 100 µL of the compounds, two‐fold serially diluted in the range of 100–0.19 µM. Positive controls (microbial suspensions in regular media), negative controls (only compounds), and solvent controls (microbial suspensions incubated with DMSO dilutions) were included in the tests. The plate was incubated at 37°C for 24 h, and subsequently the optical density at 630 nm (OD630nm) was spectrophotometrically measured. Experiments were carried out in triplicate in three biological replicates. […]
# E. coli = assay: Colistin association assay; type: cell-based, Escherichia coli; details: colistin at sub-inhibitory concentration (MIC/8 = 0.027 µM)
# Experimental: This is a confirmation of the ability of these new QPySs to also affect Gram‐negative proliferation once they pass through the OM.
# The dry powder of the chalcone‐based QPySs was resuspended in dimethylsulfoxide (DMSO) at 20 mM and used as stock solutions. For biological investigations, compounds were used in the range 100–0.78 µM, and the solvent in the corresponding percentage range. The following commercially available antimicrobials and toxic clinical drugs were purchased from Sigma‐Aldrich (St. Louis, MO, USA), dissolved in water, and used as reference controls. Gentamicin and ampicillin were used in the range 107.69–0.82 µM and 143.23–1.12 µM, respectively; the colistin was used at 0.03 µM in association with the chalcone‐based QASs with E. coli. The fluconazole was used in the assays with C. albicans in the range 3.27–0.03 µM. […]
# In short, microbial inocula were prepared at 0.5 McFarland in PBS and, subsequently, bacterial suspensions were diluted 1:200 in Mueller–Hinton broth (Sigma‐Aldrich, St. Louis, MO, USA), while fungal inoculum was diluted 1:20 in RPMI‐1640 medium (Gibco®, ThermoFisher Scientific Inc., Waltham, MA, USA), containing glucose 2%, 0.3% levo‐glutamine buffered to pH 7.0 with 0.165 M 3‐(N‐morpholino) propanesulfonic acid (MOPS). […] The plate was incubated at 37°C for 24 h, and subsequently the optical density at 630 nm (OD630nm) was spectrophotometrically measured. […]
SMILES,CC50 at 48 h [1] [µM],IC50 (S. aureus ATCC 25923) [µM],MIC (S. aureus ATCC 25923) [µM],IC50 (E. coli ATCC 25922) [µM],MIC (E. coli ATCC 25922) [µM],IC50 (C. albicans ATCC 10231) [µM],MIC (C. albicans ATCC 10231) [µM],hemolytic activity [2] [%],MIC [3] [µM],MIC Escherichia coli in association with colistin (E. coli) [µM]
"C#CCOc1ccc(C(=O)/C=C/c2ccc[n+](CCCCCCCC)c2)c(OCC#C)c1 [Compound 3, (E)‐3‐{3‐[2,4‐Bis(prop‐2‐yn‐1‐yloxy)phenyl]‐3‐oxoprop‐1‐en‐1‐yl}‐1‐octylpyridin‐1‐ium bromide]",47,2.65,6.25,11,12.5,30.5,50,–,–,–
"CNC(C)C1CCC(N)C(OC2C(N)CC(N)C(OC3OCC(C)(O)C(NC)C3O)C2O)O1 (stereo not shown) [GEN, gentamicin, reference compound]",–,4,6.54,6.11,13.1,–,–,–,–,–
"OC(Cn1cncn1)(Cn1cncn1)c1ccc(F)cc1F [FLC, fluconazole, reference compound]",–,–,–,–,–,0.23,0.82,–,–,–
"COc1cccc2c1C(=O)c1c(O)c3c(c(O)c1C2=O)C[C@@](O)(C(=O)CO)C[C@@H]3O[C@H]1C[C@H](N)[C@H](O)[C@H](C)O1 [DOX, doxorubicin, reference compound]",70.6,–,–,–,–,–,–,–,–,–
"C#CCOc1ccc(C(=O)/C=C/c2ccc[n+](CCCCCCCCCCCC)c2)c(OCC#C)c1.[Br-] [Compound 5, (E)‐3‐{3‐[2,4‐Bis(prop‐2‐yn‐1‐yloxy)phenyl]‐3‐oxoprop‐1‐en‐1‐yl}‐1‐dodecylpyridin‐1‐ium bromide]",14,1.62,3.12,5.88,6.25,1.57,3.12,40.9,–,–
"C#CCOc1ccc(C(=O)/C=C/c2ccc[n+](CCCCCC[n+]3cccc(/C=C/C(=O)c4ccc(OCC#C)cc4OCC#C)c3)c2)c(OCC#C)c1 [Compound 10, 1,1′‐(Hexane‐1,6‐diyl)bis{3‐[(E)‐3‐(2,4‐bis‐prop‐2‐yn‐1‐yloxyphenyl)‐3‐oxoprop‐1‐en‐1‐yl]pyridin‐1‐ium} bromide]",> 100,58.3,50,46,50,95,100,–,≥ 50,–
"C#CCOc1ccc(C(=O)/C=C/c2ccc[n+](CCCCCCCCCCCCCCCCCC)c2)c(OCC#C)c1 [Compound 8, (E)‐3‐{3‐[2,4‐Bis(prop‐2‐yn‐1‐yloxy)phenyl]‐3‐oxoprop‐1‐en‐1‐yl}‐1‐octadecylpyridin‐1‐ium bromide]",5.73,14.2,100,–,> 100,52.5,> 100,–,–,–
"C#CCOc1ccc(C(=O)/C=C/c2ccc[n+](CCCCCCCCCCCCCCCC)c2)c(OCC#C)c1 [Compound 7, (E)‐3‐{3‐[2,4‐Bis(prop‐2‐yn‐1‐yloxy)phenyl]‐3‐oxoprop‐1‐en‐1‐yl}‐1‐hexadecylpyridin‐1‐ium]",5.38,4.21,12.5,–,> 100,5.76,6.25,–,–,–
"C#CCOc1ccc(C(=O)/C=C/c2ccc[n+](CCCCCC)c2)c(OCC#C)c1.[Br-] [Compound 2, (E)‐3‐{3‐[2,4‐Bis(prop‐2‐yn‐1‐yloxy)phenyl]‐3‐oxoprop‐1‐en‐1‐yl}‐1‐hexylpyridin‐1‐ium bromide]",> 100,34.4,50,–,> 100,68.7,100,–,–,50
